After the bases stand the sugars from the 5' end (letter, count) and the backbone: PS all phosphorothioate, else s phosphorothioate and o phosphodiester by linkage. Methylation of C is not given here. l = locked nucleic acid (LNA); d = 2'-deoxy (DNA)

In this series the target is SNHG14. The following applies: ASO.
Where [1] appears, read: Mouse Primary Neuronal Cell, 0.005 µM.

As for “CATCTGATCTCACACAT (sugars l4 d11 l2, PS)”, the target mRNA inhibition reads like this: (Human Neuronal Cell, 0.2 µM) 29%; (Human Neuronal Cell, 1 µM) 46%. Take “TCCATTTATTTCCATTTATT (sugars l2 d11 l2 d3 l2, PS)”: where the note is “Human Neuronal Cell, 7.5 µM”, the target mRNA inhibition was 58%. “GCACATTCTTTCTATAC (sugars ldlllddddddllddll, PS)”: the target mRNA inhibition (Human Neuronal Cell, 7.5 µM) worked out at 34%. As to “CTACAAATTCAATTTACT (sugars l2 d12 l4, PS)”, the target mRNA inhibition is, setting by setting: (Human Neuronal Cell, 0.2 µM) 3%; (Human Neuronal Cell, 1 µM) 10%. Take “CTCATACTTGCTTTAAT (sugars l4 d11 l2, PS)”: the target mRNA inhibition reads like this: (Human Neuronal Cell, 0.2 µM) 7%; (Human Neuronal Cell, 1 µM) 13%; (Human Neuronal Cell, 5 µM) 26%; under setting [1], 96.4%. Consider “TTTTAACCAGAGTGGCAT (sugars l4 d11 l3, PS)”, for which the target mRNA inhibition (Human Neuronal Cell, 7.5 µM) came out at 56%. For the sequence ACTAATGCAATAACCC (sugars l3 d10 l3, PS), the target mRNA inhibition reads like this: (Human Neuronal Cell, 0.2 µM) 45%; (Human Neuronal Cell, 1 µM) 28%.

“GTTTATACCCTTTCCAAT (sugars ldldldddddddddldll, PS)”: under “Human Neuronal Cell, 7.5 µM”, the target mRNA inhibition worked out at 57%. As for “TTTATCAATATCTTCTCAC (sugars l1 d12 l2 d1 l3, PS)”, the target mRNA inhibition (Human Neuronal Cell, 7.5 µM) was 60%. As to “TTATAGCCATTCTATCT (sugars l3 d10 l1 d1 l2, PS)”, where the note is “Human Neuronal Cell, 7.5 µM”, the target mRNA inhibition was 59%. Take “TACTATCTTTGACATTC (sugars l4 d11 l2, PS)”: the target mRNA inhibition (Human Neuronal Cell, 0.2 µM) came out at 48% and the target mRNA inhibition (Human Neuronal Cell, 1 µM) amounted to 59%.

Turning to “CAAAGATCATTCTCAAC (sugars l5 d6 l1 d1 l4, PS)”, the target mRNA inhibition (Human Neuronal Cell, 7.5 µM) was found to be 22%. For “TATACACCATCATTATA (sugars l4 d11 l2, PS)”, the target mRNA inhibition by setting is: (Human Neuronal Cell, 0.2 µM) 41%; (Human Neuronal Cell, 1 µM) 60%. As to “TTTCTGACTCCCTATCC (sugars l2 d13 l2, PS)”, the target mRNA inhibition came out at 25% (Human Neuronal Cell, 0.2 µM) and 14% (Human Neuronal Cell, 1 µM). As for “TATTGATTCAATTCCCT (sugars lldldddddddddldll, PS)”, the target mRNA inhibition (Human Neuronal Cell, 7.5 µM) amounted to 69%.

As for CAGCTATTCAATAAAC (sugars l4 d10 l2, PS), the target mRNA inhibition is, setting by setting: (Human Neuronal Cell, 0.2 µM) 8%; (Human Neuronal Cell, 1 µM) 7%.

For “TAAAGATCCCATCACTC (sugars l3 d11 l3, PS)”, the target mRNA inhibition worked out at 44% (Human Neuronal Cell, 0.2 µM) and 50% (Human Neuronal Cell, 1 µM).

On to “AAAATTATTTATACACCATC (sugars llldldldddddddllldll, PS)”, for which the target mRNA inhibition (Human Neuronal Cell, 7.5 µM) was 56%. With “CCTTTCATTAACATTTA (sugars l3 d11 l3, PS)”, the target mRNA inhibition was 46% (Human Neuronal Cell, 0.2 µM) and 52% (Human Neuronal Cell, 1 µM). Turning to “AATTATTTATACACCATCAT (sugars lddllldddddddldlddll, PS)”, for the setting “Human Neuronal Cell, 7.5 µM”, the target mRNA inhibition was 71%. Still for that read-out and setting: next, “TTATAGCCATTCTATCT (sugars ldddlddddddllddll, PS)”: 16%.

As for “GTTCTACTATACTTTCCT (sugars lddldddddddddlddll, PS)”, the target mRNA inhibition (Human Neuronal Cell, 7.5 µM) came out at 58%. Still for that read-out and setting: the same measure for “TTTTATACCTTTCTTTAACC (sugars ldlddddddddddlldddll, PS)”: 53%; for “TTCTGTATACACCATCC (sugars l1 d12 l4, PS)”: 51%. Same read-out and setting: the same measure for “TTATAGCCATTCTATCT (sugars lldldddddddldldll, PS)”: 26%. As for GTACTTACACATCTAT (sugars l2 d10 l4, PS), the target mRNA inhibition worked out at 45% (Human Neuronal Cell, 0.2 µM) and 26% (Human Neuronal Cell, 1 µM). For ACCTTAAGTAACATTT (sugars l4 d10 l2, PS), the target mRNA inhibition runs as follows: (Human Neuronal Cell, 0.2 µM) 36%; (Human Neuronal Cell, 1 µM) 44%.

Consider “TTATAGCCATTCTATCT (sugars lddlddddddddlddll, PS)”, for which, under “Human Neuronal Cell, 7.5 µM”, the target mRNA inhibition was 17%.

For “TTTCCTCTGCTTATAAC (sugars l4 d11 l2, PS)”, the target mRNA inhibition by setting is: (Human Neuronal Cell, 0.2 µM) 34%; (Human Neuronal Cell, 1 µM) 56%. Regarding “ATCATTCTCAACAATTAA (sugars l5 d8 l1 d1 l3, PS)”, under “Human Neuronal Cell, 7.5 µM”, the target mRNA inhibition is 59%. Still for that read-out and setting: the same measure for “TTATAGCCATTCTATCT (sugars lldldddddddldddll, PS)”: 59%; for “AAAATCTCAACTACCATTT (sugars lldldlddddddddlllll, PS)”: 41%; for “ATCTCATGACCACCTAA (sugars l3 d10 l1 d1 l2, PS)”: 60%. Still for that read-out and setting: the same measure for “GCACATTCTTTCTATACCT (sugars l1 d3 l1 d12 l2, PS)”: 48%. As for “TCACTTTCCAGATATCA (sugars l2 d13 l2, PS)”, the target mRNA inhibition was 23% (Human Neuronal Cell, 0.2 µM); -6% (Human Neuronal Cell, 1 µM); 17% (Human Neuronal Cell, 5 µM); 46.6% under setting [1]. Turning to “TTTTATACCTTTCTTTAACC (sugars l1 d5 l1 d10 l3, PS)”, under “Human Neuronal Cell, 7.5 µM”, the target mRNA inhibition amounted to 38%. As to CATCATATTGAACCAA (sugars l2 d10 l4, PS), the target mRNA inhibition (Human Neuronal Cell, 0.2 µM) worked out at 52% and the target mRNA inhibition (Human Neuronal Cell, 1 µM) is 63%. As to “TTGATTCAATTCCCTTA (sugars ldddlddddddldldll, PS)”, the target mRNA inhibition (Human Neuronal Cell, 7.5 µM) was determined as 48%. For “GATCATTCTCAACAATT (sugars l1 d1 l3 d7 l5, PS)”, the target mRNA inhibition (Human Neuronal Cell, 7.5 µM) came out at 22%.

Turning to “AAATTATTTATACACCATCA (sugars ldlddldddddddldlldll, PS)”, the target mRNA inhibition (Human Neuronal Cell, 7.5 µM) is 60%. “TTTTATACCTTTCTTTAACC (sugars llldddddddddddldldll, PS)”: the target mRNA inhibition (Human Neuronal Cell, 7.5 µM) amounted to 65%. For the sequence “CAACATTATTAACCACCTTA (sugars l2 d4 l1 d11 l2, PS)”, the target mRNA inhibition (Human Neuronal Cell, 7.5 µM) amounted to 37%. Turning to “GTTTCCATCTACTATTA (sugars l2 d11 l4, PS)”, the target mRNA inhibition was determined as 60% (Human Neuronal Cell, 0.2 µM) and 75% (Human Neuronal Cell, 1 µM). As for “AGTTCTACTATACTTTC (sugars l2 d1 l2 d10 l2, PS)”, the target mRNA inhibition (Human Neuronal Cell, 7.5 µM) came out at 58%. The same measure, in the same setting: next, “TGAAAATCTCAACTACCAT (sugars l1 d3 l2 d10 l3, PS)”: 43%; “AGCAACATTATTAACCAC (sugars l2 d10 l2 d1 l3, PS)”: 44%. Consider TGTACTTACACATCTA (sugars l3 d10 l3, PS), for which the target mRNA inhibition is, setting by setting: (Human Neuronal Cell, 0.2 µM) 42%; (Human Neuronal Cell, 1 µM) 34%. For “ACATTATTATTTAACCT (sugars l3 d11 l3, PS)” the same measures were 6% and 17%.

Turning to “GTTCTACTATACTTTCCT (sugars lddldlddddddddddll, PS)”, where the note is “Human Neuronal Cell, 7.5 µM”, the target mRNA inhibition was determined as 56%. With “ACTGTTTATACCCTTTCC (sugars l1 d15 l2, PS)”, the target mRNA inhibition (Human Neuronal Cell, 7.5 µM) amounted to 40%. For the sequence “CAACTCTCACTGTAACT (sugars l4 d11 l2, PS)”, the target mRNA inhibition reads like this: (Human Neuronal Cell, 0.2 µM) 47%; (Human Neuronal Cell, 1 µM) 49%. As for “TGTTTCCATCTACTATTA (sugars lddddldddddddlddll, PS)”, under “Human Neuronal Cell, 7.5 µM”, the target mRNA inhibition came out at 62%. The same measure, in the same setting: the same measure for “AATTTTTTTCTTACTATCTT (sugars llllddldddddddldddll, PS)”: 49%.

With “GCACATTCTTTCTATAC (sugars l2 d9 l1 d3 l2, PS)”, where the note is “Human Neuronal Cell, 7.5 µM”, the target mRNA inhibition worked out at 48%. On to CCTACATCTCATACTT (sugars l2 d12 l2, PS), for which the target mRNA inhibition runs as follows: (Human Neuronal Cell, 0.2 µM) -3%; (Human Neuronal Cell, 1 µM) -3%; (Human Neuronal Cell, 5 µM) 11%. On to TCATCCCTCCAAGAAA (sugars l4 d10 l2, PS), for which the target mRNA inhibition is -12% (Human Neuronal Cell, 0.2 µM); -17% (Human Neuronal Cell, 1 µM); -46% (Human Neuronal Cell, 5 µM).

On to “ATCTCATGACCACCTAA (sugars ldlddddddddlddlll, PS)”, for which the target mRNA inhibition (Human Neuronal Cell, 7.5 µM) was 52%. Same read-out and setting: next, “GTTCTACTATACTTTCCT (sugars l1 d2 l1 d11 l3, PS)”: 62%. The same measure, in the same setting: next, “TTTATACCTTTCTTTAACCC (sugars l2 d1 l1 d14 l2, PS)”: 50%; “GTTCTACTATACTTTCCTC (sugars lddddddddddddldldll, PS)”: 56%. In the case of “TACACAATCAACAACAAAT (sugars l4 d13 l2, PS)”, the target mRNA inhibition runs as follows: (Human Neuronal Cell, 0.2 µM) 25%; (Human Neuronal Cell, 1 µM) 41%.

As to “CTCAAAGATCATTCTCA (sugars l1 d1 l3 d8 l4, PS)”, the target mRNA inhibition (Human Neuronal Cell, 7.5 µM) was 66%. Still for that read-out and setting: next, “TATACCTTTCTTTAACCCTT (sugars ldddddldddddddddldll, PS)”: 66%; “ATTGATTCAATTCCCTT (sugars llddlddddddddldll, PS)”: 64%; “TTTACACTTAATTATACTTC (sugars l6 d7 l1 d4 l2, PS)”: 58%. Same read-out and setting: next, “TTTATCAATATCTTCTCAC (sugars ldlddlddddddldddlll, PS)”: 61%.

For “ATAACATTACTCTTAACA (sugars l3 d12 l3, PS)”, the target mRNA inhibition runs as follows: (Human Neuronal Cell, 0.2 µM) 22%; (Human Neuronal Cell, 1 µM) 40%. As to “GATCATTCTCAACAATTAA (sugars lddlldddddddlddllll, PS)”, the target mRNA inhibition (Human Neuronal Cell, 7.5 µM) is 55%. Same read-out and setting: next, “AAAATCTCAACTACCATTT (sugars ldldllddddddddlllll, PS)”: 31%. Take “AATTTTTTTCTTACTATCTT (sugars lddddldddddddldldlll, PS)”: the target mRNA inhibition (Human Neuronal Cell, 7.5 µM) came out at 50%. Still for that read-out and setting: next, “CTTTCCATTTATTTCCATTT (sugars ldddldldddddddddddll, PS)”: 53%; “TTATAGCCATTCTATCT (sugars l1 d1 l2 d11 l2, PS)”: 66%.

In the case of “CAAAGATCATTCTCAACA (sugars l1 d4 l1 d7 l5, PS)”, the target mRNA inhibition (Human Neuronal Cell, 7.5 µM) was found to be 65%. The same measure, in the same setting: the same measure for “TTCAGCTTTTAACCAGAGTG (sugars l2 d15 l3, PS)”: 73%. Regarding CCATTCAATGATCACT (sugars l2 d10 l4, PS), the target mRNA inhibition (Human Neuronal Cell, 0.2 µM) was 52% and the target mRNA inhibition (Human Neuronal Cell, 1 µM) was 45%. For “TATCTCATTTACATTATT (sugars l4 d12 l2, PS)” the same measures were 27% and 43%.

For AATCTCAACTACCATT (sugars l4 d10 l2, PS), the target mRNA inhibition runs as follows: (Human Neuronal Cell, 0.2 µM) 60%; (Human Neuronal Cell, 1 µM) 66%.

The record behind these values is the OligoGym collection.
